Tested on: DYT1 knockin (Tor1a^delGAG/+) murine embryonic fibroblasts (MEFs)
Assay: Untargeted LC/MS/MS proteomics of EVs from DYT1 MEFs exposed 24 hours to drug, compared with untreated DYT1 (Het) MEFs
Assay type: cell-based, mouse
Method: Methods for isolation and purification of exosomes and extracellular vesicles (EV) were extensively reviewed. Experiments were performed to arrive at a robust and reproducible protocol. The protocol used herein is that set forth in Théry et al, 2006, which is incorporated by reference for it teaching of this protocol. This protocol involves depleting serum-derived EVs from cell culture media by overnight ultracentrifugation and exchanging media for 1% FBS EV-depleted media. Media is then collected from cells following a 24-hour conditioning period and EVs are isolated by 18-hour ultracentrifugation at 100,000 g (FIG. 1A).
EVs were isolated from media of cultured murine embryonic fibroblasts (MEFs) prepared in-house according to protocols described by Xu 2005 from DYT1 knockin mice (Tor1a^delGAG/+) (Goodchild R E, et al. (2005) Neuron. 48:923-932) and littermate wild-type (WT) controls. The cultured MEFs from the DYT1 mice were exposed for 24 hours to Ritonavir (RTV) while the MEFs from WT mice were exposed to vehicle, ISRIB, or Salubrinal (SAL). The EVs isolated from these WT cells and DYT1 were characterized by untargeted proteomics and RNA-seq to identify differentially expressed proteins and RNAs as candidate biomarkers. Experimenter and Proteomics core staff were blinded to genotype of cell cultures throughout preparation and analysis phases.
Samples were first normalized to 20 μg and spiked with undigested casein at a total of 40 fmol/μg, 80 fmol/μg, or 160 fmol/μg, then reduced with 10 mM dithiolthreitol for 30 minute at 80° C. and alkylated with 20 mM iodoacetamide for 30 minutes at room temperature. Next, the samples were supplemented with a final concentration of 1.2% phosphoric acid and 741 μL of S-Trap (Protifi) binding buffer (90% MeOH/100 mM […]). Proteins were trapped on the S-Trap, digested using 20 ng/μL sequencing grade trypsin (Promega) for 1 hour at 47° C., and eluted using 50 mM TEAB, followed by 0.2% FA, and lastly using 50% CAN/0.2% FA. All samples were then lyophilized to dryness and resuspended in 40 μL 1% TFA/2% acetonitrile containing 12.5 fmol/μL yeast alcohol dehydrogenase (ADH_YEAST). A QC Pool was created from 3 uL of each sample. All QC Pools were run periodically throughout the acquisition period.
Quantitative LC/MS/MS was performed on 2 μL of each sample, using a nanoAcquity UPLC system (Waters Corp) coupled to a Thermo Orbitrap Fusion Lumos high resolution accurate mass tandem mass spectrometer (Thermo) via a nanoelectrospray ionization source. Briefly, the sample was first trapped on a Symmetry C18 20 mm×180 μm trapping column (5 μL/min at 99.9/0.1 v/v water/acetonitrile), after which the analytical separation was performed using a 1.8 μm Acquity HSS T3 C18 75 μm×250 mm column (Waters Corp.) with a 90 minute linear gradient of 5% to 30% acetonitrile with 0.1% formic acid at a flow rate of 400 nanoliters/minute (nL/min) with a column temperature of 55° C. Data collection on the Fusion Lumos mass spectrometer was performed in a data-dependent acquisition (DDA) mode of acquisition with a r=120,000 (@ m/z 200) full MS scan from m/z 375-1500 with a target AGC value of 2e5 ions. MS/MS scans were acquired at Rapid scan rate (Ion Trap) with an AGC target of 5e3 ions and a max injection time of 100 ms. The total cycle time for MS and MS/MS scans was 2 seconds. A 20 second dynamic exclusion was employed to increase depth of coverage. The total analysis cycle time for each sample injection was approximately 2 hours.

Measured: SAL Direction Opposite ISRIB?

O=C(/C=C/c1ccccc1)NC(NC(=S)Nc1cccc2cccnc12)C(Cl)(Cl)Cl (stereo not shown) [SAL, Salubrinal]
yes: DYT1 (Het) MEF EVs, protein: DNA replication licensing factor MCM6 | DYT1 (Het) MEF EVs, protein: DNA-directed RNA polymerases I and III subunit RPAC1 | DYT1 (Het) MEF EVs, protein: Protein arginine N-methyltransferase 3 | DYT1 (Het) MEF EVs, protein: Scavenger receptor class B member 1 | DYT1 (Het) MEF EVs, protein: Serine threonine-protein phosphatase 2A 55 kDa regulatory subunit B alpha isoform | DYT1 (Het) MEF EVs, protein: Small nuclear ribonucleoprotein-associated protein B | EV protein: 26S proteasome non-ATPase regulatory subunit 8 | EV protein: 60S [?] subunit biogenesis protein [?] homolog | EV protein: 60S ribosomal protein [?] | EV protein: 116 kDa [?] small nuclear ribonucleoprotein component | EV protein: AP-3 complex subunit [?] | EV protein: ATP-dependent RNA helicase [?] | EV protein: Acyl-protein thioesterase 2 | EV protein: Anaphase-promoting complex subunit 2 | EV protein: Anaphase-promoting complex subunit 5 | EV protein: Apolipoprotein M | EV protein: Calnexin | EV protein: Cell [?] cycle protein [?] homolog | EV protein: Coiled-coil domain-containing protein 22 | EV protein: Cullin-2 | EV protein: Cullin-5 | EV protein: Cullin-7 | EV protein: DNA [?] (r264) | EV protein: DNA ligase 1 | EV protein: DNA replication licensing factor [?] | EV protein: DNA-directed RNA polymerase II subunit RPB1 | EV protein: DNA-directed RNA polymerase II subunit RPB2 | EV protein: DNA-directed RNA polymerase II subunit RPB3 | EV protein: DNA-directed RNA polymerases I, II, and III subunit RPABC3 | EV protein: DNA-directed RNA polymerases I, II, and III subunit [?] | EV protein: Double-strand-break repair protein rad21 homolog | EV protein: Elongin-B | EV protein: Exosome complex exonuclease RRP44 | EV protein: Extended synaptotagmin-1 | EV protein: Gamma-tubulin complex component 2 | EV protein: General vesicular transport factor p115 | EV protein: Glycosylated lysosomal membrane protein | EV protein: Glycylpeptide N-tetradecanoyltransferase 1 | EV protein: Golgi reassembly-stacking protein 2 | EV protein: Histone-arginine methyltransterase CARM1 | EV protein: Importin-7 | EV protein: Leucyl-cystinyl aminopeptidase | EV protein: Mediator [?] RNA polymerase II transcription subunit 23 | EV protein: Metastasis-associated protein [?] (r222) | EV protein: Metastasis-associated protein [?] (r261) | EV protein: Microtubule-associated protein [?] | EV protein: Nuclear [?] complex protein [?] | EV protein: Nuclear cap-binding protein subunit 1 | EV protein: Nuclear receptor-binding protein | EV protein: Phosphoribosyl pyrophosphate synthase-associated protein 1 | EV protein: Pigment epithelium-derived factor | EV protein: Protein O-GlcNAcase | EV protein: Protein [?] 14 homolog | EV protein: Protein [?] (r160) | EV protein: Ran-binding protein 10 | EV protein: Ribosome biogenesis protein BOP1 | EV protein: Ribosome production factor 2 homolog | EV protein: Serine threonine-protein phosphatase 6 catalytic subinit | EV protein: Sorting nexin-1 | EV protein: Trascriptional activator protein [?] -alpha | EV protein: WD repeat-containing protein [?] | EV protein: [?] -1 (r154) | EV protein: [?] -1 (r232) | EV protein: [?] -conjucating enxyme [?] | EV protein: [?] kinase | EV protein: [?] myosin- [?] | EV protein: [?] repeat-containing protein 5A | EV protein: [?] small nuclear ribonucleoprotein 40 kDa protein | EV protein: p21-activated protein kinase-interacting protein 1 | EV protein: transportin-3
